Measured values from patent publication US6124278A, “Acylbenzoxazines for enhancing synaptic response” (The Regents of the University of California, priority 1998, dated 2000).
Where “and” joins values, the source holds several entries; their conditions need not be identical. Equal entries are not always repeated. Where two headings read alike, the source gives them in different places.

Experiments:
[1] = system: AMPA receptors; assay: Field EPSP response in rat hippocampal slices (CA1); assay type: cell-based, rat (Sprague-Dawley); conditions: for EPSP Response (percentage increase in the area of the EPSP response): rat hippocampal slices
Procedure: The physiological effects of invention compounds can be tested in vitro with slices of rat hippocampus according to the following procedure. Excitatory responses (field EPSPs) are measured in hippocampal slices, which are maintained in a recording chamber continuously perfused with artificial cerebrospinal fluid (ACSF). During a 15-30 minute interval, the perfusion medium is switched to one containing various concentrations of the test compounds. Responses collected immediately before and at the end of drug perfusion were superimposed in order to calculate both the percent increase in EPSP amplitude and percent increase in the width of the response at one-half the peak height (half-width).
To conduct these tests, the hippocampus was removed from anesthetized, 2 month old Sprague-Dawley rats and in vitro slices (400 micrometers thick) were prepared and maintained in an interface chamber at 35° C. using conventional techniques [see, for example, Dunwiddie and Lynch, J. Physiol. 276: 353-367 (1978)]. The chamber was constantly perfused at 0.5 mL/min with ACSF containing (in mM): NaCl 124, KCl 3, KH2 PO4 1.25, MgSO4 2.5, CaCl2 3.4, NaHCO3 26, glucose 10 and L-ascorbate 2. A bipolar nichrome stimulating electrode was positioned in the dendritic layer (stratum radiatum) of the hippocampal subfield CA1 close to the border of subfield CA3.
Current pulses (0.1 msec) through the stimulating electrode activate a population of the Schaffer-commissural (SC) fibers that arise from neurons in the subdivision CA3 and terminate in synapses on the dendrites of CA1 neurons. Activation of these synapses causes them to release the transmitter glutamate. Glutamate binds to the post-synaptic AMPA receptors which then transiently open an associated ion channel and permit a sodium current to enter the postsynaptic cell. This current results in a voltage in the extracellular space (the field excitatory post-synaptic potential or field "EPSP") which is recorded by a high impedance recording electrode positioned in the middle of the stratum radiatum of CA1.
For the experiments summarized Table 1, the intensity of the stimulation current was adjusted to produce half-maximal EPSPs (typically about 1.5-2.0 mV). Paired stimulation pulses were given every 40 sec with an interpulse interval of 200 msec (see below). The field EPSPs of the second response were digitized and analyzed to determine amplitude, half-width, and response area. If the responses were stable for 15-30 minutes (baseline), test compounds were added to the perfusion lines for a period of about 15 minutes. The perfusion was then changed back to regular ACSF.
Paired-pulse stimulation was used since stimulation of the SC fibers, in part, activates interneurons which generate an inhibitory postsynaptic potential (IPSP) in the pyramidal cells of CA1. This feed forward IPSP typically sets in after the EPSP reaches its peak. It accelerates the repolarization and shortens the decay phase of the EPSP, and thus could partially mask the effects of the test compounds. One of the relevant features of the feed-forward IPSP is that it can not be reactivated for several hundred milliseconds following a stimulation pulse. […]
The field EPSP recorded in field CA1 after stimulation of CA3 axons is known to be mediated by AMPA receptors: the receptors are present in the synapses [Kessler et al., Brain Res. 560: 337-341 (1991)] and drugs that selectively block the receptor selectively block the field EPSP [Muller et al., Science, supra]. […]

[2] = Memory enhancement in eight-arm radial maze; assay type: in vivo; conditions: rat, read-out: Maze MED (Minimum Effective Dose to improve performance of rats in the eight-arm radial maze)
From the text: (§1) The third data column reports the magnitude of the increase in the amplitude of the EPSP at the lowest concentrations that produced a significant increase. The characteristic of a compound to produce an increase in the EPSP response has been a reliable predictor of the ability to improve memory in the 8-arm radial maze task.
^.dagger-dbl. Minimum Effective Dose to improve performance of rats i
the eightarm radial maze.

[3] = system: AMPA receptors; conditions: metabolite; cited from earlier work
[4] = comparison compound, Example 1 of U.S. Pat. No. 5,736,543; rat; cited from earlier work
[5] = Plasma clearance half-life and oral bioavailability (AUC oral vs iv) in rat; assay type: in vivo
From the text: as §1
*Plasma clearance following iv administration in rat
^# AUC for oral administration as a percentage of AUC for iv

Q: For `O=C1CCCC2Oc3cc4c(cc3CN12)OCCO4` (centres unmarked) [Compound 3, 6a,7,8,9-Tetrahydro-1,4-dioxan[2,3-g]pyrido[2,1-b][1,3]benzoxazine-10(10H,12H)-dione], which “EPSP Response (percentage increase in the area of the EPSP response)” value ([1]; 30 μM) is on record?
A: Its value is 10%.

Q: With `O=C1CCC2Oc3cc4c(cc3C(=O)N12)OCO4` (centres unmarked) [Compound 4, 5a,6,7,8-Tetrahydro-1,3-dioxolo[4,5-g]pyrrolo[2,1-b][1,3]benzoxazine-8,10(10H)-dione] as the compound, how does the “Activity in the slice model, in words” value ([1]; 300 μM) read?
A: The value was “inactive”.

Q: And the “EPSP Response (percentage increase in the area of the EPSP response)” value ([1]; 300 μM)?
A: The value was 0%.

Q: For `O=C1CCC2Oc3cc4c(cc3CN12)OCCO4` (centres unmarked) [Compound 2, 6a,7,8,9-Tetrahydro-1,4-dioxin[2,3-g]pyrrolo[2,1-b][1,3]benzoxazine-9(11H)-one], which minimal effective dose [2] is on record?
A: The minimal effective dose was 0.1 mg/kg.

Q: And the “EPSP Response (percentage increase in the area of the EPSP response)” value ([1]; 30 μM)?
A: The value was 20%.

Q: With `COc1ccc(C(=O)NCCCC(=O)O)cc1` [anisoyl-GABA] as the compound, how does the Aniracetam-like effects [3] read?
A: The Aniracetam-like effects was “only weak aniracetam-like effects”.

Q: Which results are given for `O=C1c2cc3c(cc2OC2CCCN12)OCO3` (centres unmarked) [Example 1 of U.S. Pat. No. 5,736,543]?
A: bioavailability [4]: 35%; half-life [4]: 31 min

Q: With `O=C1CCC2Oc3cc4c(cc3CN12)OCO4` (centres unmarked) [Compound 1, 5a,6,7,8-Tetrahydro-1,3-dioxolo[4,5-g]pyrrolo[2,1-b][1,3]benzoxazine-8(10H)-one] as the compound, how does the half-life ([5]; iv administration) read?
A: The half-life was 58 min.

Q: What about the bioavailability ([5]; oral vs iv, read-out: Bioavailability (AUC for oral administration as a percentage of AUC for iv)) of the same compound?
A: Its bioavailability is 100%.

Q: What about the “EPSP Response (percentage increase in the area of the EPSP response)” value ([1]; 300 μM) of the same compound?
A: Its value is 20% and 25%.
